Experimental data taken from patent publication EP2296651B1, “5-HYDROXYMETHYL-OXAZOLIDIN-2-ONE DERIVATIVES FOR TREATING BACTERIAL INTESTINAL DISEASES” (Actelion Pharmaceuticals Ltd., priority 2008, dated 2009).
Converted amounts (≈) assume the structure as drawn.

Tests used:
[1] = tested on: C. difficile ATCC 43596; assay: Broth microdilution MIC, anaerobic; format: cell-based, Clostridium difficile; conditions: Clostridioides difficile, ATCC43596, 48h at 37°C, read-out: MIC regarding C. difficile ATCC 43596
[2] = tested on: C. difficile ATCC 9689; assay: Broth microdilution MIC, anaerobic; format: cell-based, Clostridium difficile; conditions: Clostridioides difficile, ATCC9689, 48h at 37°C, read-out: MIC regarding C. difficile ATCC 9689
[3] = tested on: C. difficile NC 13366; assay: Broth microdilution MIC, anaerobic; format: cell-based, Clostridium difficile; conditions: Clostridioides difficile, NC13366, 48h at 37°C, quinolone-resistant hypervirulent strain, read-out: MIC regarding C. difficile NC 13366
[4] = tested on: 209 diverse clinical isolates of C. difficile; assay: CLSI agar dilution MIC, clinical isolates; format: cell-based, Clostridium difficile; conditions: Clostridioides difficile, 48 h; 209 clinical isolates of C. difficile; read-out: MIC90
[5] = tested on: Fusobacterium necrophorum A-1260 DSM 20698; assay: Agar dilution MIC, anaerobic strains; format: cell-based; conditions: DSM20698, 48 h
[6] = tested on: Bacteroides vulgatus A-989 ATCC 8482; assay: Agar dilution MIC, anaerobic strains; format: cell-based; conditions: Phocaeicola vulgatus, ATCC8482, 48 h
[7] = tested on: Bacteroides fragilis A-502 T 7403; assay: Agar dilution MIC, anaerobic strains; format: cell-based; conditions: A502T7403, 48 h
[8] = tested on: Bacteroides fragilis A-348 T 8673; assay: Agar dilution MIC, anaerobic strains; format: cell-based; conditions: A348T8673, 48 h
[9] = tested on: Bacteroides fragilis A-501 B 8039; assay: Agar dilution MIC, anaerobic strains; format: cell-based; conditions: A501B8039, 48 h
[10] = tested on: Bacteroides fragilis A-260 T 9865; assay: Agar dilution MIC, anaerobic strains; format: cell-based; conditions: A260T9865, 48 h
[11] = tested on: Eubacterium limosum A-1259 DSM 20698; assay: Agar dilution MIC, anaerobic strains; format: cell-based
[12] = tested on: Finegoldia magna A-1254 DSM 20470; assay: Agar dilution MIC, anaerobic strains; format: cell-based
[13] = tested on: Bifidobacterium adolescentis A-1257 DSM 20083; assay: Agar dilution MIC, anaerobic strains; format: cell-based; conditions: DSM20083, 48 h
[14] = tested on: Lactococcus lactis A-1256 DSM 20069; assay: Agar dilution MIC, anaerobic strains; format: cell-based
[15] = tested on: C. difficile A-1050 (ATCC 43596); assay: Spore formation at sub-MIC concentrations; format: cell-based; conditions: 0.5x the MIC; 4 days anaerobic incubation at 37°C
[16] = tested on: toxigenic C difficile strain 10465; assay: C. difficile hamster model; format: in vivo, Golden Syrian hamsters
Experimental: Golden Syrian hamsters were given a single injection of clindamycin phosphate (10 mg/kg s.c.), and a day later animals were infected by gavage with 10^5 CFU of toxigenic C difficile strain 10465. A fulminant colitis results in the majority (∼95%) of animals and develops 1 to 2 days after the administration of C. difficile. Untreated, the colitis progresses rapidly and turns into severe colitis, hemorrhagic necrosis of the cecum and death. The compound of Example 1 was administered orally as a suspension at three dosage levels (10 mg/kg, 30 mg/kg and 100 mg/kg; n = 10 per group). Vancomycin (50 mg/kg) was used as a control. Animals were treated once daily for 5 days and afterwards maintain under observation for an additional 21 days.
The animals were observed three times daily for morbidity and presence or absence of diarrhoea. The final endpoint of the study was survival. Animals judged to be in a moribund state [extended period of weight loss progressing to an emaciated state, anorexia for 24-48 h, prolonged lethargy (more than 3 days), signs of paralysis, skin erosions or trauma, hunched posture, distended abdomen] were euthanized by a single injection of sodium pentobarbital.

[17] = tested on: S. aureus ATCC 29213; assay: Broth microdilution MIC, aerobic Gram-positive bacteria; conditions: Staphylococcus aureus, ATCC29213, 48 h
[18] = tested on: S. aureus ATCC 43300 (MRSA); assay: as above; conditions: Staphylococcus aureus, 48 h
[19] = tested on: S. aureus S1 (LZD-R); assay: as above; conditions: Staphylococcus aureus, 48 h
[20] = tested on: E. faecalis ATCC 29212; assay: as above; conditions: Enterococcus faecalis, ATCC29212, 48 h
[21] = tested on: E. faecalis H 4060; assay: as above; conditions: Enterococcus faecalis, H4060, 48 h
[22] = tested on: E. faecalis H 6279; assay: as above; conditions: Enterococcus faecalis, H6279, 48 h
[23] = tested on: E. faecalis H 6897; assay: as above; conditions: Enterococcus faecalis, H6897, 48 h
[24] = tested on: E. faecium H 9070; assay: as above; conditions: Enterococcus faecium, H9070, 48 h
[25] = tested on: E. faecium A 962; assay: as above; conditions: Enterococcus faecium, A962, 48 h
[26] = tested on: E. faecium A 949; assay: as above; conditions: Enterococcus faecium, A949, 48 h
[27] = tested on: E. faecium L1 (LZD-R); assay: as above; conditions: Enterococcus faecium, 48 h
[28] = 100 mg/kg orally once daily for 5 days

O=C(O)c1cn(C2CC2)c2cc(N3CCC(O)(COc4ccc(N5C[C@H](CO)OC5=O)cc4F)CC3)c(F)cc2c1=O [Example 1, 1-cyclopropyl-6-fluoro-7-{4-[2-fluoro-4-((R)-5-hydroxymethyl-2-oxo-oxazolidin-3-yl)-phenoxymethyl]-4-hydroxy-piperidin-1-yl}-4-oxo-1,4-dihydro-quinoline-3-carboxylic acid]
MIC [1]: 0.125 µg/mL (≈ 0.213 µM)
MIC [2]: 0.125 µg/mL (≈ 0.213 µM)
MIC [3]: 0.06 µg/mL (≈ 0.102 µM)
MIC90 [4]: 0.25 µg/mL (≈ 0.427 µM)
MIC [5]: 1 µg/mL (≈ 1.71 µM)
MIC [6]: 2 µg/mL (≈ 3.42 µM)
MIC [7]: 4 µg/mL (≈ 6.83 µM)
MIC [8]: 2 µg/mL (≈ 3.42 µM)
MIC [9]: 4 µg/mL (≈ 6.83 µM)
MIC [10]: 4 µg/mL (≈ 6.83 µM)
MIC ([11]; DSM20698, 48 h, Eubacterium limosum A-1259, DSM 20698): 1 µg/mL (≈ 1.71 µM)
less activity against Eubacterium limosum A-1259 compared to the compound of Example 5 of WO 2005/058888 ([11]; versus R1): 4 times
MIC ([12]; DSM20470, 48 h, Finegoldia magna A-1254, DSM 20470): 0.25 µg/mL (≈ 0.427 µM)
less activity against Finegoldia magna A-1254 compared to the compound of Example 5 of WO 2005/058888 ([12]; versus R1): 4 times
MIC [13]: 0.5 µg/mL (≈ 0.854 µM)
MIC ([14]; DSM20069, 48 h, Lactococcus lactis A-1256, DSM 20069): 0.5 µg/mL (≈ 0.854 µM)
less activity against Lactococcus lactis A-1256 compared to the compound of Example 5 of WO 2005/058888 ([14]; versus R1): 8 times
spores of total cell count [15]: < 1%
survival during the 5 day treatment period ([16]; 10 mg/kg orally once daily for 5 days): all
survival during the 5 day treatment period ([16]; 30 mg/kg orally once daily for 5 days): all
animals survived without relapse, relapse phase of 21 days after treatment [16, 28]: 100%
survival during the 5 day treatment period [16, 28]: all
MIC [17]: 0.25 µg/mL (≈ 0.427 µM)
MIC [18]: 0.25 µg/mL (≈ 0.427 µM)
MIC [19]: 1 µg/mL (≈ 1.71 µM)
MIC [20]: 0.25 µg/mL (≈ 0.427 µM)
MIC [21]: 0.25 µg/mL (≈ 0.427 µM)
MIC [22]: 0.25 µg/mL (≈ 0.427 µM)
MIC [23]: 1 µg/mL (≈ 1.71 µM)
MIC [24]: 1 µg/mL (≈ 1.71 µM)
MIC [25]: 0.5 µg/mL (≈ 0.854 µM)
MIC [26]: 1 µg/mL (≈ 1.71 µM)
MIC [27]: 2 µg/mL (≈ 3.42 µM)
